Assay [1] concerns E. coli (ATCC 10798). The assay is described as follows: Sensitization to novobiocin (concentration lowering the MIC of novobiocin), E. coli (ATCC 10798). The class given is cell-based, Escherichia coli. The note with it: Table 9; Escherichia coli (ATCC 10798). As to the method: (§1) Alternatively, “fractional inhibitory concentration (FIC)” is also useful for determination of synergy between the compounds of the invention, or the compounds in combination with known antibiotics. FICs can be performed by checkerboard titrations of compounds in one dimension of a microtiter plate, and of antibiotics in the other dimension, for example. The FIC is calculated by looking at the impact of one antibiotic on the MIC of the other and vice versa. […] Preferably, an FIC of less than 0.5 is obtained for synergism. As used herein, FIC can be determined as follows:
(§2) Aliquots of 1 mL of the suspension were added to test tubes containing 1 mL TSB and incrementally varied concentrations of cholic acid derivatives and/or erythromycin or novobiocin. In the sensitization experiments, erythromycin or novobiocin were added 15 minutes later than the cholic acid derivatives. The samples were subjected to stationary incubation at 37° C. for 24 hours. Sample turbidity was determined by measuring absorption at 760 nm (HP 8453 UV-Visible Chemstation, Hewlett Packard). Additionally, an alliquot from each of the samples showing no measurable turbidity was subcultured on TSA plates (alliquots were diluted to provide fewer than 300 CFU). Colonies that grew on the subculture after overnight incubation were counted and the number of CFU/mL in the samples were calculated. The calculated values were compared to the number of CFU/mL in the original inoculum.
(§3) Ability to permeabilize outer membrane: Compounds 11, 106, and 108-114 (FIG. 1) were tested for antibiotic activity. They were also tested for the ability to permeabilize the outer membrane of Gram-negative bacteria, causing sensitization to hydrophobic antibiotics that cannot cross the outer membrane. The permeabilization of the outer membrane was measured using erythromycin and novobiocin.
(§4) The MICs of erythromycin and novobiocin against E. coli (ATCC 10798) at 70 and >500 μg/mL were measured.

Assay [2] concerns E. coli (ATCC 10798). The assay can be described thus: Sensitization to erythromycin (concentration lowering the MIC of erythromycin), E. coli (ATCC 10798). The class given is cell-based, Escherichia coli. The note with it: for (a) Concentration required to lower the MIC of erythromycin from 70 to 1 μg/mL / (b) MBC with 1 μg/mL erythromycin / FIC values with erythromycin: Table 9, Escherichia coli (ATCC 10798). As to the method:
as §1, §2, §3, §4

Assay [3] has as its system E. coli (ATCC 10798). The assay can be described thus: MIC and MBC measurement with E. coli (ATCC 10798). The assay is classed as cell-based, Escherichia coli.
From the text: (§5) General: Microorganisms. Reference strains were purchased from the American Type Culture Collection (Rockville, Md.) or Bactrol disks from Difeo Laboratories (Detroit, Mich.). The following specific ATCC strains were used: 10798 Escherichia coli, 25922 Escherichia coli, 13883 Klebsiella pneumoniae, 27853 Pseudomonas aeruginosa, 14028 Salmonella typhimurium, 29212 Enterococcus faecalis, 25923 Staphylococcus aureus, 19615 Streptococcus pyogenes, and 90028 Candida albicans. Bacterial strains were maintained on Mueller-Hinton agar plates, and Candida albicans was maintained on Sabouraud Dextrose agar plates.
(§6) Tryptic soy broth (TSB) was made by dissolving 27.5 grams of tryptic soy broth without dextrose (DIFCO Laboratories) in 1 liter of deionized water and sterilizing at 121° C. for 15 minutes. Solid agar (TSA) plates were made by dissolving 6.4 grams of tryptic soy broth and 12 grams of agar (purified grade, Fischer Scientific) in 800 mL of deionized water and sterilizing at 121° C. for 20 minutes. Aliquots (20 mL) of the homogeneous solution were then poured in sterile plastic petri dishes (100×15 mm, Fisher Scientific). Solutions of compounds were made by dissolving the HCl salt of the respective compound into an appropriate amount of deionized and sterilized water followed by microfiltration.
as §2

Assay [4] deals with Pseudomonas aeruginosa (ATCC 27853). The assay can be described thus: MIC and MBC measurement with Pseudomonas aeruginosa (ATCC 27853). The class given is cell-based. Conditions: P. aureginosa (ATCC 27853); starting MIC in sensitization tests.
From the text: as §5, §6, §2

A further assay concerns E. coli (ATCC 25922). The assay can be described thus: MIC and MBC measurement with E. coli (ATCC 25922). The class given is cell-based, Escherichia coli. The note with it: Escherichia coli, ATCC25922, E. coli (ATCC 25922); starting MIC in sensitization tests; read-out: MIC of erythromycin alone.
From the text: as §5, §6
as §2, with “inoculum. […]” for “inoculum.”

[5] abbreviates: Table 9, Escherichia coli (ATCC 10798).

The structures appear in SMILES notation. Converted amounts (≈) assume the structure as drawn. Where only a bound is given, the exact number is not on record here.

What is called MBC is the smallest concentration meeting the test's criterion for killing. Higher therefore signals less potent killing. Usually MIC stands for the smallest concentration in the dilution series that meets the test's criterion for growth inhibition. With `C[C@H](CCCO)[C@H]1CC[C@H]2[C@@H]3[C@H](OCCCN)C[C@@H]4C[C@H](OCCCN)CC[C@]4(C)[C@H]3C[C@H](OCCCN)[C@]12C` [Compound 110], in the assay with E. coli (ATCC 10798) [1], the “(d) Concentration required to lower the MIC of novobiocin from >500 to 1 μg/mL” value came out at 4.0 µg/mL and the “FIC values with novobiocin” value was 0.11. In the assay on E. coli (ATCC 10798) [2], the “(a) Concentration required to lower the MIC of erythromycin from 70 to 1 μg/mL” value worked out at 2.0 µg/mL, the “(b) MBC with 1 μg/mL erythromycin” value was 50 µg/mL and the “FIC values with erythromycin” value was 0.070. In the assay on E. coli (ATCC 10798) [3] (setting [5]), this compound returned an MBC of 60 µg/mL (≈ 106 µM) and an MIC of 36 µg/mL (≈ 63.6 µM).
Take `COCCC[C@@H](C)[C@H]1CC[C@H]2[C@@H]3[C@H](OCCCN)C[C@@H]4C[C@H](OCCCN)CC[C@]4(C)[C@H]3C[C@H](OCCCN)[C@]12C` [Compound 111]: in the assay on E. coli (ATCC 10798) [1], the “(d) Concentration required to lower the MIC of novobiocin from >500 to 1 μg/mL” value stood at 2.0 µg/mL and the “FIC values with novobiocin” value was found to be 0.069. Also, in the assay on E. coli (ATCC 10798) [2], the “(a) Concentration required to lower the MIC of erythromycin from 70 to 1 μg/mL” value was determined as 1.0 µg/mL, the “(b) MBC with 1 μg/mL erythromycin” value amounted to 20 µg/mL and the “FIC values with erythromycin” value is listed as 0.048. In the assay with E. coli (ATCC 10798) [3] (setting [5]), this compound came in with an MBC of 33 µg/mL (≈ 56.9 µM) and an MIC of 30 µg/mL (≈ 51.7 µM).
With `CCCCCCCCOCCC[C@@H](C)[C@H]1CC[C@H]2[C@@H]3[C@H](OCCCN)C[C@@H]4C[C@H](OCCCN)CC[C@]4(C)[C@H]3C[C@H](OCCCN)[C@]12C` [Compound 114], in the assay with E. coli (ATCC 10798) [2], the “(a) Concentration required to lower the MIC of erythromycin from 70 to 1 μg/mL” value was 3.0 µg/mL, the “(b) MBC with 1 μg/mL erythromycin” value turned out to be 3.0 µg/mL and the “FIC values with erythromycin” value worked out at 1.0. In the assay with E. coli (ATCC 10798) [3] (setting [5]), this compound had an MBC of 10 µg/mL (≈ 14.7 µM) and an MIC of 3.0 µg/mL (≈ 4.42 µM).
With `C[C@H](CCCOS(=O)(=O)O)[C@H]1CC[C@H]2[C@@H]3[C@H](OCCCN)C[C@@H]4C[C@H](OCCCN)CC[C@]4(C)[C@H]3C[C@H](OCCCN)[C@]12C` [Compound 132], in the assay on E. coli (ATCC 10798) [2] (E. coli (ATCC 10798)), the “concentration required to lower the MIC of erythromycin to 1 μg/mL” value stood at 4.0 µg/mL. Also, the MIC with E. coli (ATCC 10798) [3] (E. coli (ATCC 10798)) came out at 60 µg/mL (≈ 92.9 µM).
`C[C@H](CCCN)[C@H]1CC[C@H]2[C@@H]3[C@H](OCCCN)C[C@@H]4C[C@H](OCCCN)CC[C@]4(C)[C@H]3C[C@H](OCCCN)[C@]12C` [Compound 135]: in the assay on E. coli (ATCC 10798) [3] (FIG. 5, strain not named), the “MBC (in words)” value was “relatively high” and the “MIC (in words)” value is listed as “relatively high”.
Turning to `CC[C@H]1OC(=O)[C@H](C)[C@@H](O[C@H]2C[C@@](C)(OC)[C@@H](O)[C@H](C)O2)[C@H](C)[C@@H](O[C@@H]2O[C@H](C)C[C@H](N(C)C)[C@H]2O)[C@](C)(O)C[C@@H](C)C(=O)[C@H](C)[C@@H](O)[C@]1(C)O` [erythromycin, reference compound], the “MIC of the antibiotic alone” value in assay [4] is given as 240 μg/mL to 5 μg/mL with P. aureginosa (ATCC 27853). Moreover, the MIC with E. coli (ATCC 25922) was 36 µg/mL.
Consider `CO[C@@H]1[C@@H](OC(N)=O)[C@@H](O)[C@H](Oc2ccc3c(O)c(NC(=O)c4ccc(O)c(CC=C(C)C)c4)c(=O)oc3c2C)OC1(C)C` [novobiocin, reference compound], for which the “MIC of the antibiotic alone” value in assay [4] is listed as >500 μg/mL to 1 μg/mL with P. aureginosa (ATCC 27853).
